Measured values: patent publication US20240344241A1, “PROTEINACEOUS MOLECULES AND USES THEREFOR” (THE UNIVERSITY OF QUEENSLAND, priority 2021, published 2024)
Bridge positions count the residues as written; N and C are the ends. Peptide text beside a SMILES is read from it.

Legend:
[1] = target: T1, biotinylated human β-FXIIa (Homo sapiens, UniProt P00748); experiment: Surface plasmon resonance binding to FXIIa
T1 construct: purchased Molecular Innovations
Summary of the method: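 Biacore T200 SPR with biotinylated β-FXIIa captured on a CAP chip, running buffer HBS-EP+ pH 7.4. Peptides injected as a concentration series, surface regenerated after each cycle; kinetics modelled with a 1:1 binding model.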

Rec. human tPA = target: T2, Rec. human tPA (Homo sapiens, UniProt P00750); experiment: tPA inhibition assay; type: biochemical
T2 construct: made in house; host or cells: Expi293 cells
Procedure: (§1) The activity of acyclic and cyclic MCoFx1-5 and analogues thereof was assessed in competitive inhibition assays, as previously described in Swedberg et al. (2016) J Med Chem, 59: 7287-7292. Human β-FXIIa was obtained from Molecular Innovations, together with human FXa, human FXIa, human α-thrombin, and human plasma kallikrein. Human cationic trypsin and human plasmin were obtained from Sigma-Aldrich, and recombinant human matriptase was sourced from R&D Systems. Recombinant human urokinase (uPA) and recombinant human tissue plasminogen activator (tPA) were expressed in Expi293 cells, as previously described in Li et al. (2019) Chembiochem, 20: 46-50. FXIIa inhibition assays were performed in clear, low-binding 96-well plates using 250 μL (final volume) of assay buffer (0.1 M Tris-HCl pH 8.0, 0.1 M NaCl, 10 mM CaCl2 and 0.005% Triton X-100). Inhibitors were serially diluted and incubated with 10 nM FXIIa at room temperature to reach equilibrium. After adding 100 μM Ac-QRFR-pNA substrate (KM=162 μM), enzymatic activity was measured by monitoring release of the pNA moiety using a TECAN infinite M1000 Pro plate reader (A=405 nm, reading interval, 10 s; assay time course, 7 min). Assays were conducted in three times in duplicate. Substrate kinetic constants (Michaelis-Menten) and inhibition constants (Morrison K) were determined by non-linear regression using Prism 7 (GraphPad). Selectivity assays with off-target proteases were performed in a similar way, except that different concentrations of enzyme and substrate were used, as indicated in Table 16. For assays using a fluorescent substrate (peptide-4-methylcoumaryl-7-amide, MCA), black low-binding 96-well plates were used and activity was measured using a TECAN infinite M1000 pro plate reader (λex 360 nm, λem 460 nm, reading interval, 30 s; assay time course, 5-30 min).

Human β-FXIIa = target: T3, Human β-FXIIa (Homo sapiens, UniProt P00748); experiment: FXIIa competitive inhibition assay, colorimetric substrate Ac-QRFR-pNA; type: biochemical
T3 construct: Human β-FXIIa was obtained from Molecular Innovations, together with human FXa, human FXIa, human α-thrombin, and human plasma kallikrein; purchased Molecular Innovations; host or cells: purified from human plasma
Summary of the method: (§2)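 Competitive inhibition: serially diluted inhibitors were pre-incubated with enzyme at room temperature to equilibrium in 0.1 M Tris-HCl pH 8.0, 0.1 M NaCl, 10 mM CaCl2, 0.005% Triton X-100. Substrate hydrolysis was followed by pNA absorbance (405 nm) or MCA fluorescence (ex 360/em 460 nm); Morrison Ki by non-linear regression.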

[2] = test system: clotting via the intrinsic pathway; experiment: Activated partial thromboplastin time (aPTT) assay in human plasma; type: biochemical
Text: Citrated, platelet-poor plasma samples from healthy adults were collected, prepared, and stored using previously established collection protocols, such as in Zdenek et al. (2019) Toxicol in Vitro, 58: 97-109.
Standard coagulation assays were used to determine the effect of the inhibitors on the clotting time of human plasma. Activated partial thromboplastin time (aPTT) uses a Kaolin reagent (clay) to activate the intrinsic/contact pathway of the coagulation cascade, whereas prothrombin time (PT) uses Neoplastine (lyophilized thromboplastin prepared from rabbit cerebral tissue) to activate the extrinsic/tissue-factor pathway of the coagulation cascade. A minor adjustment was made to both tests (addition of 25 μL inhibitor or buffer; refer to Table 17) to accommodate the addition of an inhibitor without changing the total volume (and therefore relative ratios of additives) of the assay. Concentrations of inhibitor are reported as the concentration at the point of incubation in the assay, i.e. not taking into account the addition of the start reagent (calcium for aPTT, or Neoplastine for PT).
Clotting time (seconds) of plasma was automatically measured using a STA-R Max® analyzer (Stago, Asnieres sur Seine, France). Measurements were conducted using a viscosity-based (mechanical) detection system, whereby opposing magnets oscillate a small metal spherical pellet inside the test cuvette (250 μL total volume) until a clot is formed. Dilution of the inhibitor in Owren-Koller (OK) buffer for dose-response curves was performed automatically by the machine. Reagents were kept at 15-19° C. in the machine during experimentation and otherwise stored at 4° C. All tests were performed in triplicate.

Human FXIa = target: T4, Human FXIa (Homo sapiens, UniProt P03951); experiment: FXIa inhibition assay; type: biochemical
T4 construct: Human β-FXIIa was obtained from Molecular Innovations, together with human FXa, human FXIa, human α-thrombin, and human plasma kallikrein; purchased Molecular Innovations; host or cells: purified from human plasma
Procedure: as §1

Human plasma kallikrein = target: T5, Human plasma kallikrein (Homo sapiens, UniProt P03952); experiment: Plasma kallikrein inhibition assay; type: biochemical
T5 construct: Human β-FXIIa was obtained from Molecular Innovations, together with human FXa, human FXIa, human α-thrombin, and human plasma kallikrein; purchased Molecular Innovations; host or cells: purified from human plasma
Procedure: as §1

[3] = test system: human umbilical vein endothelial cells (HUVECs)
Procedure: HUVECs were cultured in complete EGM™-2 medium until 80% confluence under 5% CO2 at 37° C. before being seeded onto a 96-well microplate at 5,000 cells/well. Cells were grown for 24 h prior to the assay. […] Peptides were diluted tenfold with serum-free EGM™-2 medium and incubated with HUVECs in triplicate. After 24 h incubation, peptide solutions were replaced with fresh complete EGM™-2 medium before the addition of 0.05% resazurin solution (Sigma-Aldrich). Cells were incubated for another 8 h and the absorbance of the plate was measured on a microplate reader at 540 and 620 nm. H2O and 1% Triton-X were used as control for 100 and 0% viability, separately.

Human FXa = target: T6, Human FXa (Homo sapiens, UniProt P00742); experiment: FXa inhibition assay; type: biochemical
T6 construct: Human β-FXIIa was obtained from Molecular Innovations, together with human FXa, human FXIa, human α-thrombin, and human plasma kallikrein; purchased Molecular Innovations; host or cells: purified from human plasma
Procedure: as §1

Human thrombin = target: T7, Human thrombin (Homo sapiens, UniProt P00734); experiment: Thrombin inhibition assay; type: biochemical
T7 construct: Human β-FXIIa was obtained from Molecular Innovations, together with human FXa, human FXIa, human α-thrombin, and human plasma kallikrein; purchased Molecular Innovations; host or cells: purified from human plasma
Procedure: as §1

Human trypsin = target: T8, Human trypsin (Homo sapiens, UniProt P07477); experiment: Trypsin competitive inhibition assay; type: biochemical; details: Table 10; read-out: Ki Trypsin
T8 construct: purchased Sigma-Aldrich; host or cells: purified from human tissue
Summary of the method: as §2

Rec. human uPA = target: T9, Rec. human uPA (Homo sapiens, UniProt P00749); experiment: uPA inhibition assay; type: biochemical
T9 construct: made in house; host or cells: Expi293 cells
Procedure: as §1

T3 sequence (P00748 373-615 limits assumed, other chains not shown): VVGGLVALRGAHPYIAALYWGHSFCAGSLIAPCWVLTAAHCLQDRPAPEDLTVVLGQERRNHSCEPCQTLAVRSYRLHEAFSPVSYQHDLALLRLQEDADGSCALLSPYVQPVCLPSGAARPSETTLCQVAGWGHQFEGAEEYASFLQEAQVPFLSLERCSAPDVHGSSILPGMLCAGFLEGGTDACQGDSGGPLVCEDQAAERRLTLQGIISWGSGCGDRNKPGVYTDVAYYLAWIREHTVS
T2 sequence (P00750 36-562): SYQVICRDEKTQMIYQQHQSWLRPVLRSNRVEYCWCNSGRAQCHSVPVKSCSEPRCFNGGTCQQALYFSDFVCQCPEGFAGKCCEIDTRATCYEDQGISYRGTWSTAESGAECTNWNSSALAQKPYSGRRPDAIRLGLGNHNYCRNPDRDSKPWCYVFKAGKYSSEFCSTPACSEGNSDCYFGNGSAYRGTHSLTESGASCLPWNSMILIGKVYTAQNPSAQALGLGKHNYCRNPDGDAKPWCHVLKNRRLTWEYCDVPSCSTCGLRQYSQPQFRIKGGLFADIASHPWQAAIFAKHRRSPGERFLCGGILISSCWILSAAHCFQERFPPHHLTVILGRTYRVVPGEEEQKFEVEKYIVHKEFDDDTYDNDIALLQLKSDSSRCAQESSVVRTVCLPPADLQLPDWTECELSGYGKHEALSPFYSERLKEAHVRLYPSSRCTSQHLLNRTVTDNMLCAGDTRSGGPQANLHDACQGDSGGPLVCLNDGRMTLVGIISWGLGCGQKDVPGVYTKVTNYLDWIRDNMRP
T4 sequence (P03951 388-625 limits assumed): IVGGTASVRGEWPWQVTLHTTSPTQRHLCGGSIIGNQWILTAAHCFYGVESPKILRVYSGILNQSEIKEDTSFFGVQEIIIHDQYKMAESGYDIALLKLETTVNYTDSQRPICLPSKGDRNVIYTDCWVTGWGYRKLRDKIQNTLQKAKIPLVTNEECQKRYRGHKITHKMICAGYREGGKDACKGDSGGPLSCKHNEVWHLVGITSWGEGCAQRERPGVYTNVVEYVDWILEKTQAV
T4 sequence (P03951 19-387 partner limits assumed): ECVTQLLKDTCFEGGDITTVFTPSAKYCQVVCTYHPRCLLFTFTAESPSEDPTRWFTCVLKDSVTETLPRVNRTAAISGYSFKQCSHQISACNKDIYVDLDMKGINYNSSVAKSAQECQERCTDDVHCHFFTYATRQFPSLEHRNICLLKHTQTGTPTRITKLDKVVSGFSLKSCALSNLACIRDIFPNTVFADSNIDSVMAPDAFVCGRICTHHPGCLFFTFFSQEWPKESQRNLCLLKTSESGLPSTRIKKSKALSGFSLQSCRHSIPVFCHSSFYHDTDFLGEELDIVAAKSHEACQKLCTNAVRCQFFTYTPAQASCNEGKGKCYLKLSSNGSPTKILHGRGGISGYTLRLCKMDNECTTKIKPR
T1 sequence (P00748 373-615 limits assumed, other chains not shown): as the sequence (P00748 373-615 limits assumed, other chains not shown) above
T5 sequence (P03952 391-638 limits assumed): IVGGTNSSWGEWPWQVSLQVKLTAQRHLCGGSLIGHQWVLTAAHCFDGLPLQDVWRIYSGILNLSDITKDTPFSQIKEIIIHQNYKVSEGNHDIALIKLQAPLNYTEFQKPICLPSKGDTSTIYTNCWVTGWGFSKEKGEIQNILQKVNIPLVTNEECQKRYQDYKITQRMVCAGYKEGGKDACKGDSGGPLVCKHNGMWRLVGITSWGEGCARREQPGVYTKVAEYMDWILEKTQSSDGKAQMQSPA
T5 sequence (P03952 20-390 partner limits assumed): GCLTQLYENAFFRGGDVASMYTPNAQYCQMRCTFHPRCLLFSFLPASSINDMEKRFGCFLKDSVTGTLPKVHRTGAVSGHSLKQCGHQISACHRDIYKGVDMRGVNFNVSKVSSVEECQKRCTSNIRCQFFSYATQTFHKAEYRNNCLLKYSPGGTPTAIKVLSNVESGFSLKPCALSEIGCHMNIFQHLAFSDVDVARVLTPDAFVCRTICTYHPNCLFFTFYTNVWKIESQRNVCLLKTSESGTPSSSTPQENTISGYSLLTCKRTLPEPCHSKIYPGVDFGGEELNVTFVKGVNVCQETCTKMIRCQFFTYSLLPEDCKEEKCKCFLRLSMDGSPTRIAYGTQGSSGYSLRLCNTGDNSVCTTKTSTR
T6 sequence (P00742 235-488 limits assumed): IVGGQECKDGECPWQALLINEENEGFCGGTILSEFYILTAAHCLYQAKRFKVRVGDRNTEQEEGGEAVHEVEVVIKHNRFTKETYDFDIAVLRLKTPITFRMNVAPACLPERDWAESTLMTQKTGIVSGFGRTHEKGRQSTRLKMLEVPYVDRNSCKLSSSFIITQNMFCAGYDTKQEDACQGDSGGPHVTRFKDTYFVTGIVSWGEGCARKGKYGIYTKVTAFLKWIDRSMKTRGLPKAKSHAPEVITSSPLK
T6 sequence (P00742 41-179 partner limits assumed): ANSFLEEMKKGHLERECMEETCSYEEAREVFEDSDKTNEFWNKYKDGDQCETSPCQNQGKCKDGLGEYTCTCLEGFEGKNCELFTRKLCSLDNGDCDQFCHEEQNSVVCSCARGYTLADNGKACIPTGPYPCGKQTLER

`CC[C@H](C)[C@@H]1NC(=O)CNC(=O)CNC(=O)[C@H](CC(=O)O)NC(=O)[C@H](Cc2ccc(O)cc2)NC(=O)CNC(=O)[C@H](CO)NC(=O)CNC(=O)[C@@H]2CSSC[C@@H]3NC(=O)[C@H](CC(=O)O)NC(=O)[C@H](CO)NC(=O)[C@H](CC(=O)O)NC(=O)[C@H](CCCNC(=N)N)NC(=O)[C@H](CCCNC(=N)N)NC(=O)[C@@H]4CSSC[C@H](NC(=O)[C@H]([C@@H](C)CC)NC(=O)[C@H](CSSC[C@H](NC1=O)C(=O)N1CCC[C@H]1C(=O)N[C@@H](CCCNC(=N)N)C(=O)N[C@@H]([C@@H](C)CC)C(=O)NCC(=O)N[C@@H](CCCNC(=N)N)C(=O)N[C@@H](CC(C)C)C(=O)N4)NC(=O)[C@H](C)NC(=O)CNC(=O)[C@@H]1CCCN1C3=O)C(=O)N[C@@H](CCCNC(=N)N)C(=O)N[C@@H](C)C(=O)N[C@@H]([C@@H](C)O)C(=O)N[C@@H](CCCNC(=N)N)C(=O)N[C@@H](Cc1ccccc1)C(=O)N2` [MCoFx1 cyclic] (cyclo(ACICRATRFCGSGYDGGICPRIGRLCRRDSDCPG); disulfide 2-19, 4-26, 10-32) was tested. Which Kd ([1]; Table 7, FXIIa, cyclic form of the peptide, read-out: KD (nM) Cyclic) did it give?
Its Kd is 0.9 ± 0.04 nM.

What about the “fold higher affinity for FXIIa than MCoTI-II” value ([1]; ratio of KD values) of the same compound?
The value was 60 fold.

What about the inhibition at 5 µM (Rec. human tPA; at 5 μM, read-out: percent inhibition tPA) of the same compound?
Its inhibition at 5 µM is 0%.

What about the IC50 (Rec. human tPA; read-out: IC50 tPA) of the same compound?
The IC50 was > 5 µM.

And the Ki (Human β-FXIIa; Table 7, FXIIa, cyclic form of the peptide, read-out: Ki (nM) Cyclic)?
The Ki was 0.37 ± 0.04 nM.

What about the “fold more potent than MCoTI-II (FXIIa Ki)” value (Human β-FXIIa; ratio of Ki values) of the same compound?
The value was 350 fold.

And the “difference in Ki FXIIa versus trypsin” value (Human β-FXIIa; selectivity)?
Its value is “exceeds three orders of magnitude”.

What about the “EC2× (concentration required to double the clotting time)” value [2] of the same compound?
The value was 702 nM.

And the inhibition at 5 µM (Human FXIa; at 5 μM, read-out: percent inhibition FXIa)?
Its inhibition at 5 µM is 0%.

What about the IC50 (Human FXIa; read-out: IC50 FXIa) of the same compound?
Its IC50 is > 5 µM.

What about the inhibition at 5 µM (Human plasma kallikrein; at 5 μM, read-out: percent inhibition Plasma kallikrein) of the same compound?
Its inhibition at 5 µM is 0%.

What about the IC50 (Human plasma kallikrein; read-out: IC50 Plasma kallikrein) of the same compound?
Its IC50 is > 5 µM.

What about the “cytotoxicity to HUVECs” value [3] of the same compound?
The value was “not toxic”.

What about the inhibition at 5 µM (Human FXa; at 5 μM, read-out: percent inhibition FXa) of the same compound?
The inhibition at 5 µM was 0%.

And the IC50 (Human FXa; read-out: IC50 FXa)?
The IC50 was > 5 µM.

What about the inhibition at 5 µM (Human thrombin; at 5 μM, read-out: percent inhibition Thrombin) of the same compound?
Its inhibition at 5 µM is 2%.

What about the IC50 (Human thrombin; read-out: IC50 Thrombin) of the same compound?
Its IC50 is > 5 µM.

What about the Ki (Human trypsin) of the same compound?
The Ki was 1.11 µM.

And the inhibition at 5 µM (Rec. human uPA; at 5 μM, read-out: percent inhibition uPA)?
The inhibition at 5 µM was 0%.

What about the IC50 (Rec. human uPA; read-out: IC50 uPA) of the same compound?
The IC50 was > 5 µM.
